# Assay results from ChEMBL document CHEMBL1201862, “PubChem BioAssay data set” (2004).
# Active and inactive are the calls of the source.
# Columns and labels:
# [1] = target: T1, Microphthalmia-associated transcription factor (Homo sapiens, UniProt O75030); assay: reducers of TRPM1 reporter luminescence, concentration series – cell-based, SK-MEL-5, cherry-picked, set 3, MITF inhibitor project, dose response (AID 493073); format: functional;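 further: SK-MEL-5 melanoma cells with luciferase driven by the MITF target TRPM1 promoter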
# T1 sequence (O75030 whole entry): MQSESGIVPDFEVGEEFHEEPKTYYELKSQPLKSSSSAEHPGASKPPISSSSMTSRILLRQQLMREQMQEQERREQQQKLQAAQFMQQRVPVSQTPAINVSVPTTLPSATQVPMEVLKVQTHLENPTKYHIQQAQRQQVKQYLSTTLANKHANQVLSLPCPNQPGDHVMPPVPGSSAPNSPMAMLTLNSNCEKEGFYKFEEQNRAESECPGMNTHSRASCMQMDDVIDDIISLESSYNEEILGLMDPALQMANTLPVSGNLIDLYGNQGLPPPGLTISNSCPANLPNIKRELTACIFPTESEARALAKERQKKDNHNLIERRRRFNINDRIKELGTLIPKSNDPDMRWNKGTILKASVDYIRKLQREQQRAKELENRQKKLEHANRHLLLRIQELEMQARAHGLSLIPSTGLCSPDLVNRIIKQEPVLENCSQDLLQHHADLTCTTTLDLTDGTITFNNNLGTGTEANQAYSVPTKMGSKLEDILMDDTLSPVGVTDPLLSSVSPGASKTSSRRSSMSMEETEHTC
# [2] = test system: A-375; assay: MITF: Counter assay: A375 proliferation Measured in Cell-Based System Using Plate Reader - 2084-03_Inhibitor_Dose_DryPowder_Activity. [Related pubchem assays (depositor defined):AID488944]; format: functional; conditions: Homo sapiens
# [3] = Luminescence Cell-Based Dose Response HTS to Identify Inhibitors of 5'UTR Stem-Loop Driven Prion Protein mRNA Translation in H4 Neuroglioblastoma Cells. [Related pubchem assays: 1827 (Project Summary), 1813 (Primary HTS)]; format: functional
# [4] = luciferase reporter signal suppression in cells – H4 neuroglioma cells, luminescence, dose response (AID 1990); format: functional, cell-based
# [5] = alpha-synuclein stem-loop luciferase translation blockers – H4 neuroglioma cells, luminescence, confirmation (AID 1988); format: functional, cell-based
# [6] = test system: A-375; assay: proliferation inhibition in MITF-low A375 cells – cell-based, cherry-pick samples, set 2, counter-screen for MITF modulator project, dose response (AID 540335); format: functional; conditions: Homo sapiens
# [7] = target: 5-hydroxytryptamine receptor 5A (Homo sapiens, UniProt P47898); assay: Counterscreen for agonists of OPRM1-OPRD1 heterodimerization: luminescence-based cell-based high throughput dose response assay to identify agonists of 5-hydroxytryptamine (serotonin) 5A receptor (HTR5A). [Related pubchem assays (depositor defined):AID504326, AID504355, AID504692, AID504904, AID504905]; format: functional
# 5-hydroxytryptamine receptor 5A, sequence (P47898 whole entry): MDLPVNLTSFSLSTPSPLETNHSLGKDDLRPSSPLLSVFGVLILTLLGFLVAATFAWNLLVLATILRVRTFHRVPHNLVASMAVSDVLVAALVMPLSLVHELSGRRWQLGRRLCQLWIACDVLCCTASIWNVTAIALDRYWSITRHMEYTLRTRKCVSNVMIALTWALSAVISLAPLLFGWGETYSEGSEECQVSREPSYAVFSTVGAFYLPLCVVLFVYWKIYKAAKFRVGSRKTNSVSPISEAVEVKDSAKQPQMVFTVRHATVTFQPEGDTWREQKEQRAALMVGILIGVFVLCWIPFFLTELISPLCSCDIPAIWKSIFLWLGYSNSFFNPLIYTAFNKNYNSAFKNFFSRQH
# [8] = target: T2, Short transient receptor potential channel 4 (Mus musculus, UniProt Q9QUQ5); assay: calcium entry via TRPC4 opening agents – cell-based, HEK293 TRPC4/mu-opioid, Fluo-4 calcium, dose response (AID 434937); format: functional
# T2 sequence (Q9QUQ5 whole entry): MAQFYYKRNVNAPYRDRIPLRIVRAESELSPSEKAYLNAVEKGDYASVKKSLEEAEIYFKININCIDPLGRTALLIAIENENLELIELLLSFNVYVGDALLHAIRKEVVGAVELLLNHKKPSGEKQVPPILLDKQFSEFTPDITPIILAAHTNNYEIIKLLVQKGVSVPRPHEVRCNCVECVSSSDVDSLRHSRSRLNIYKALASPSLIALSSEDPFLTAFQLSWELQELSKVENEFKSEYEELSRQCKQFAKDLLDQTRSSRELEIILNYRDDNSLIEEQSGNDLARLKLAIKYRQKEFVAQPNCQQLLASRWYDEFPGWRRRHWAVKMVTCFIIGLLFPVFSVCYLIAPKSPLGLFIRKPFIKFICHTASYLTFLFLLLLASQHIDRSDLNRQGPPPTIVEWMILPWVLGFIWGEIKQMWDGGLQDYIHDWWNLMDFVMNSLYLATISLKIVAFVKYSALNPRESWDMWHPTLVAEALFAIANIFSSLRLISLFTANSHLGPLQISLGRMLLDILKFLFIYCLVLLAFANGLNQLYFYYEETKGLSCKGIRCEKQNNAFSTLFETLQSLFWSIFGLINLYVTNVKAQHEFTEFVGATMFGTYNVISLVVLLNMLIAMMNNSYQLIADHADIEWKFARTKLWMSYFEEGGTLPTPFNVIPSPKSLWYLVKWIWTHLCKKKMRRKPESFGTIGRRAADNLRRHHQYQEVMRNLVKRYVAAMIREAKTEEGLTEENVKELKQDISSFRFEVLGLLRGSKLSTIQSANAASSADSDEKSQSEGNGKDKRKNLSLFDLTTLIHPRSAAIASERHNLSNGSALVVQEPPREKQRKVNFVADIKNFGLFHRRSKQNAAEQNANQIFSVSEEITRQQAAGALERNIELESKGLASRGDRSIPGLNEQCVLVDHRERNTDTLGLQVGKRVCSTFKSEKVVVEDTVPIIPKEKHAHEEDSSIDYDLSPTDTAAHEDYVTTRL
# [9] = target: Mu-type opioid receptor (Homo sapiens, UniProt P35372); assay: (§1) Counterscreen for agonists of heterodimerization of the mu 1 (OPRM1) and delta 1 (OPRD1) opioid receptors: Luminescence-based cell-based high throughput dose response assay to identify agonists of OPRM1 homodimerization.; format: functional
# [10] = target: Delta-type opioid receptor (Homo sapiens, UniProt P41143); assay: as §1, with “of OPRD1” for “of OPRM1”, “homodimerization. [Related pubchem assays (depositor defined):AID504326, AID504355, AID504692, AID504904, AID504905]” for “homodimerization.”; format: functional
# Delta-type opioid receptor, sequence (P41143 whole entry): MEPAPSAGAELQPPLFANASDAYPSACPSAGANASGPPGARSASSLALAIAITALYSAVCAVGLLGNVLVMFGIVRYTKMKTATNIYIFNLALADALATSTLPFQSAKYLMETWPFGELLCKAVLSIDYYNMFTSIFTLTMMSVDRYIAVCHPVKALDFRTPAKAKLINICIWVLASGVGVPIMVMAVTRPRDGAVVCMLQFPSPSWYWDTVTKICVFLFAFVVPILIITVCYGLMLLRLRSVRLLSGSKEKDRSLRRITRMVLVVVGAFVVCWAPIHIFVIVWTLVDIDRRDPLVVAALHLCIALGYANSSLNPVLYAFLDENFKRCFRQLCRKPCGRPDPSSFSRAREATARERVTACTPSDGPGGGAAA
# [11] = target: Opioid receptors; mu & delta (Homo sapiens, UniProt P41143+P35372); assay: OPRM1-OPRD1 heterodimer agonist potency – cell-based, luminescence, dose response (AID 588407); format: functional
# [12] = target: Dual specificity protein kinase CLK1 (Homo sapiens, UniProt P49759); assay: inhibition of human CLK1 activity – biochemical, cherry-picked samples, selectivity assay for Dyrk1A inhibitor project, dose response (AID 588811)
# Dual specificity protein kinase CLK1, sequence (P49759 whole entry, the tested form may be a part): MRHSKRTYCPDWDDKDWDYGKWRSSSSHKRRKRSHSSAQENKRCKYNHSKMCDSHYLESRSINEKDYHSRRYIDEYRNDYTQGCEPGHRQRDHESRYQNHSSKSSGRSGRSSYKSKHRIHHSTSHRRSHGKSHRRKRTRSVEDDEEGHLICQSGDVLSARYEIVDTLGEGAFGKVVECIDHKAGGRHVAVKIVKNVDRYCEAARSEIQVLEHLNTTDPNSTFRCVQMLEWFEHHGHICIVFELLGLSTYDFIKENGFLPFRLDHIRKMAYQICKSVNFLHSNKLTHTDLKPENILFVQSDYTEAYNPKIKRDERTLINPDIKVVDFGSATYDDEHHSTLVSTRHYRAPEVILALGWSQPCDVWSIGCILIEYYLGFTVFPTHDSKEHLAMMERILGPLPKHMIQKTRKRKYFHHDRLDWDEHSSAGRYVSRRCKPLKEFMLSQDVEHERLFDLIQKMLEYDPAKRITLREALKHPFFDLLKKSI
# [13] = target: Hexokinase-1 (Homo sapiens, UniProt P19367); assay: SAR analysis of small molecule inhibitors of hexokinase domain containing I (HKDC1) in the hexokinase 1 selectivity assay. [Related pubchem assays (depositor defined):AID493160, AID493190]; format: functional
# Hexokinase-1, sequence (P19367 whole entry, the tested form may be a part): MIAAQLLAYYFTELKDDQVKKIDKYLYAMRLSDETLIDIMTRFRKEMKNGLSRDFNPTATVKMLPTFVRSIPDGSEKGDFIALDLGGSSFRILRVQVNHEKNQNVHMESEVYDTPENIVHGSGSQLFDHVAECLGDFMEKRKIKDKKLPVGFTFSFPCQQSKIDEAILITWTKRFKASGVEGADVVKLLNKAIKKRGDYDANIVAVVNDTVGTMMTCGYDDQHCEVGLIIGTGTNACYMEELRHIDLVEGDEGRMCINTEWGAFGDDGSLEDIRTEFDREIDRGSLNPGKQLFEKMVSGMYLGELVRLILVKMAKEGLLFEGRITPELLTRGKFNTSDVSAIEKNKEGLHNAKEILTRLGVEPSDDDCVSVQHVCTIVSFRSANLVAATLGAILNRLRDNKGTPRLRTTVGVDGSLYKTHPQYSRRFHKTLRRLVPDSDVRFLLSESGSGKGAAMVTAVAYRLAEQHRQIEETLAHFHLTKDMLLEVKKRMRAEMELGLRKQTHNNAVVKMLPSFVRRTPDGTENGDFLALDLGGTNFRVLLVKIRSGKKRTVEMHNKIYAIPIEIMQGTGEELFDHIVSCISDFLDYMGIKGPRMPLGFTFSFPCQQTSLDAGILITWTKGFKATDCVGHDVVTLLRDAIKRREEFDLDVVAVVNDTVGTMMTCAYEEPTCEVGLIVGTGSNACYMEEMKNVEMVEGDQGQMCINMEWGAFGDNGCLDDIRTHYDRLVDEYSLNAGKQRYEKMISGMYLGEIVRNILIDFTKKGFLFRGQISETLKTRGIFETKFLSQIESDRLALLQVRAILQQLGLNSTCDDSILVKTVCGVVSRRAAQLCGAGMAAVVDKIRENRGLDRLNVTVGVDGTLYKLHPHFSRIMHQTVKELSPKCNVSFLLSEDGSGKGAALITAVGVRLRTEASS
# [14] = target: Hexokinase HKDC1 (Homo sapiens, UniProt Q2TB90); assay: SAR analysis of small molecule inhibitors of hexokinase domain containing I (HKDC1). [Related pubchem assays (depositor defined):AID493160, AID493190]; format: functional
# [15] = target: T3, Mannose-6-phosphate isomerase (Homo sapiens, UniProt P34949); assay: MPI inhibition at elevated mannose 6-phosphate – biochemical, fluorescence intensity, high mannose 6-phosphate, primary screen (AID 1220)
# T3 sequence (P34949 whole entry): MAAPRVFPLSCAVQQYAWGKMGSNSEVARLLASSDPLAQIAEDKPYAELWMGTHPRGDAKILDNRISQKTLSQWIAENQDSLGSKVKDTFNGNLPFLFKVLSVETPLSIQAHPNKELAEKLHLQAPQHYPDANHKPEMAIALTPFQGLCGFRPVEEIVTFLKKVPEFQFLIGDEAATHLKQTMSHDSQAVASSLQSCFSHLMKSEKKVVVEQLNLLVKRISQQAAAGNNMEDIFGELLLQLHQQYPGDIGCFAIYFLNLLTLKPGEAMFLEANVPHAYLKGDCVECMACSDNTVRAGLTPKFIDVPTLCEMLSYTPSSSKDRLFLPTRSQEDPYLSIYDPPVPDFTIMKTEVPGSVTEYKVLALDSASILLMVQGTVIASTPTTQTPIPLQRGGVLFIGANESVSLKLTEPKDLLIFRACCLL
# [16] = NIH-3T3 fibroblast cytotoxicity, dose response, cytotoxicity control, cell-based, fluorescence, Alamar Blue, secondary assay (AID 2327); format: functional;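 further: NIH-3T3 mouse fibroblasts cultured with fluconazole at 8 µg/mL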
# [17] = target: ATP-dependent molecular chaperone HSP82 (Candida albicans (strain WO-1) (Yeast), UniProt C4YTQ8); assay: steroid-induced GRE reporter decrease in yeast – S. cerevisiae, luminescence, Hsp90 inhibitor project, dose response (AID 2400); format: functional, cell-based;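 further: beta-galactosidase luminescence from glucocorticoid response element reporter as proxy for Hsp90 function; inhibitor potency where signal loss means Hsp90 inhibition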
# [18] = target: T4, SUMO-activating enzyme (Homo sapiens, UniProt Q9UBT2); assay: blockers of UBC9-mediated SUMO conjugation – biochemical, AlphaScreen, SUMOylation inhibitor project, confirmation (AID 2018); format: functional
# T4 sequence (Q9UBE0 whole entry): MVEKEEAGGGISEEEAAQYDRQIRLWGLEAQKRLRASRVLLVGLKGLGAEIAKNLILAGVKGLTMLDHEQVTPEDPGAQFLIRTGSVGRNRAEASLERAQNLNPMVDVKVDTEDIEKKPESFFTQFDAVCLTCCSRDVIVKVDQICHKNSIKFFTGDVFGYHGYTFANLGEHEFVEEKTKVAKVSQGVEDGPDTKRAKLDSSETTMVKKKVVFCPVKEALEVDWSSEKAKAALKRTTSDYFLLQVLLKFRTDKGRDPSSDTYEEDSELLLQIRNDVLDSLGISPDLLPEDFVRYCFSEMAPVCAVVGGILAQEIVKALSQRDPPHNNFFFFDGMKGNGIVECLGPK
# T4 sequence (Q9UBT2 whole entry): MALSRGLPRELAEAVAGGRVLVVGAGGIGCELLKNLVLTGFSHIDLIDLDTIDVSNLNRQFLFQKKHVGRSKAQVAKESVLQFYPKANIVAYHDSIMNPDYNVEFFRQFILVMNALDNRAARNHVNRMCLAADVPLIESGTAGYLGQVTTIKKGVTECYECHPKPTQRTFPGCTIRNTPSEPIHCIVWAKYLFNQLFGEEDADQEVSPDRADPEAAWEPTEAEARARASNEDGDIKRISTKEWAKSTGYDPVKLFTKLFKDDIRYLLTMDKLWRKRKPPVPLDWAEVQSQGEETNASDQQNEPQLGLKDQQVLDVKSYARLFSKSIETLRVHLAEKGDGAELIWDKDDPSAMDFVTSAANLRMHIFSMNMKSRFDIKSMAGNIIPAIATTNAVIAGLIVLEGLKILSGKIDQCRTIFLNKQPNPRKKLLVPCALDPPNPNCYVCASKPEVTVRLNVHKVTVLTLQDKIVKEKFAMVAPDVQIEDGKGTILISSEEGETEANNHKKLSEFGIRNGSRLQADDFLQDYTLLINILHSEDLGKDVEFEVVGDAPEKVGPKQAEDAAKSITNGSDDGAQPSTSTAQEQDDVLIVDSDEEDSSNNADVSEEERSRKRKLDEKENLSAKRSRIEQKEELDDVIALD
# [19] = target: T5, Histone-lysine N-methyltransferase NSD2 (Homo sapiens, UniProt O96028); format: biochemical
# T5 sequence (O96028 whole entry): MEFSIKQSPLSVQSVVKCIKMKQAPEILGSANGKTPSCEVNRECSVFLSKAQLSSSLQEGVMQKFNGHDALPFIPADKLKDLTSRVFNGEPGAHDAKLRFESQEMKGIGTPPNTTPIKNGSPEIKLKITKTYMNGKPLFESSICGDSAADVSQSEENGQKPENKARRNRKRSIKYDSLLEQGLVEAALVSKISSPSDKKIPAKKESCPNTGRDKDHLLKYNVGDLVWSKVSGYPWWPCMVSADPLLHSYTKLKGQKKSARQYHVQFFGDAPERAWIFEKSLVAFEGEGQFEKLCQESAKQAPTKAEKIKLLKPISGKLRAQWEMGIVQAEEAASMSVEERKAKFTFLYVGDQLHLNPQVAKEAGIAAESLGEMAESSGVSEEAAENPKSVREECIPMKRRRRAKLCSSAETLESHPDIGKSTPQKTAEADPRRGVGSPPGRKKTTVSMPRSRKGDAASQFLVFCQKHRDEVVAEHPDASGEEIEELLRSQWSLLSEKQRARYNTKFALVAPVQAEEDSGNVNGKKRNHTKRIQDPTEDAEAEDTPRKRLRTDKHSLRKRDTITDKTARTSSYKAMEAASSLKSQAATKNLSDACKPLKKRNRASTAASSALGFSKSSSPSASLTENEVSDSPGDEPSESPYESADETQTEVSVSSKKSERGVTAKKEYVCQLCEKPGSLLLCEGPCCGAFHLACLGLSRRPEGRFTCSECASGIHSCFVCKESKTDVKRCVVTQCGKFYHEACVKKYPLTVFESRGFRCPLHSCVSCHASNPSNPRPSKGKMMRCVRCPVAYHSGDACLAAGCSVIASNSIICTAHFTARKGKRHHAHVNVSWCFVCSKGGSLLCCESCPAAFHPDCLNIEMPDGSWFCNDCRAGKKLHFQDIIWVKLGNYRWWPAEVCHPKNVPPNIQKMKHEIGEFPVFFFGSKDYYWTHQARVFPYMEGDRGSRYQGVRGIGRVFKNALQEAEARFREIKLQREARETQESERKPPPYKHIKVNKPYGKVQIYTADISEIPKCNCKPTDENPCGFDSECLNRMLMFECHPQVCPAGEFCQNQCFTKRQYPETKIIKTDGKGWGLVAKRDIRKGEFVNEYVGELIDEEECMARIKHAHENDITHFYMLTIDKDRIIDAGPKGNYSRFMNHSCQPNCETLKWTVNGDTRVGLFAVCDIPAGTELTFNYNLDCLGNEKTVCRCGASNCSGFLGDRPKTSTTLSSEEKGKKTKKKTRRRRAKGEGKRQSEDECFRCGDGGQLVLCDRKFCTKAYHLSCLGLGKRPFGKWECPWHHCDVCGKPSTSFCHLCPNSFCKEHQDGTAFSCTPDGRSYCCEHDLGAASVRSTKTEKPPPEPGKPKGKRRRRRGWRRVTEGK
# [20] = test system: Vero; assay: viability of Vero cells under compound – cytotoxicity control for flavivirus capping enzyme inhibitors (AID 588742); format: functional; conditions: Chlorocebus sabaeus
# [21] = fluconazole-exposed Candida albicans growth modulators – fluorescence, retest, confirmation (AID 2467); format: functional, cell-based
# [22] = target: T4, SUMO-activating enzyme; assay: blockers of SAE1/SAE2–UBC9 SUMO transfer – biochemical, HTRF, uHTS, primary screen (AID 2006); format: protein-complex assay
# [23] = target: Serine/threonine-protein phosphatase (Candida dubliniensis (strain CD36 / CBS 7987 / NCPF 3949 / NRRLY-17841) (Yeast), UniProt B9W6M3); assay: blockers of CaCl2-induced CDRE-lacZ signaling – S. cerevisiae, luminescence, secondary, dose response (AID 2388); format: functional, cell-based;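 further: yeast reporter cells carrying a calcineurin-responsive lacZ construct stimulated with calcium chloride; luminescent beta-galactosidase reporter signal in whole cells rather than isolated phosphatase activity; potency for inhibition where a drop in reporter signal means calcineurin blockade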
# [24] = target: CAAX prenyl protease 2 (Saccharomyces cerevisiae S288c, UniProt Q03530); format: biochemical
# CAAX prenyl protease 2 (Saccharomyces cerevisiae S288c, UniProt Q03530), sequence (Q03530 whole entry): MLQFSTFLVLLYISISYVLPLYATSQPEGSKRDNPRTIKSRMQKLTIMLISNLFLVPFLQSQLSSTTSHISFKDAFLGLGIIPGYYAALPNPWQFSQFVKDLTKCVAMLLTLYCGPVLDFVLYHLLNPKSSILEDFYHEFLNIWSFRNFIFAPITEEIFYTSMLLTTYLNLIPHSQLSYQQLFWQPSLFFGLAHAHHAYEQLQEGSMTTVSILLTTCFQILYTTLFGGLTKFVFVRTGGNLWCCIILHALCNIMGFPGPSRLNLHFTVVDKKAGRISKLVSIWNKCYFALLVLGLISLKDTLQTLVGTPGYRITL
# [25] = target: CAAX prenyl protease 2 (Homo sapiens, UniProt Q9Y256); assay: inhibition of Ras-converting CAAX protease Rce1 – biochemical, yeast membranes, quenched-peptide fluorescence, cherry-pick, dose response (AID 588849)
# CAAX prenyl protease 2 (Homo sapiens, UniProt Q9Y256), sequence (Q9Y256 whole entry): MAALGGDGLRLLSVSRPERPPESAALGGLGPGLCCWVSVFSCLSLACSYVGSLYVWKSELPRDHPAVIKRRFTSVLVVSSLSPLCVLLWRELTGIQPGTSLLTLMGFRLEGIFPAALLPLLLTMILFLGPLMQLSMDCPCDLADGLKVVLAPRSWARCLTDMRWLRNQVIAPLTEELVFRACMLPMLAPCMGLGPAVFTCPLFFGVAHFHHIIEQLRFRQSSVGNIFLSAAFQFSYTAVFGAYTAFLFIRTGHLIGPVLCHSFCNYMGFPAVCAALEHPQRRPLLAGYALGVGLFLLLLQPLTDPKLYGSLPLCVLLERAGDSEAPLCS
# [26] = target: Voltage-gated inwardly rectifying potassium channel KCNH2 (Homo sapiens, UniProt Q12809); conditions: Potency;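 further: confirmatory quantitative high-throughput screen measuring inhibition of hERG channel activity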
# Voltage-gated inwardly rectifying potassium channel KCNH2, sequence (Q12809 whole entry): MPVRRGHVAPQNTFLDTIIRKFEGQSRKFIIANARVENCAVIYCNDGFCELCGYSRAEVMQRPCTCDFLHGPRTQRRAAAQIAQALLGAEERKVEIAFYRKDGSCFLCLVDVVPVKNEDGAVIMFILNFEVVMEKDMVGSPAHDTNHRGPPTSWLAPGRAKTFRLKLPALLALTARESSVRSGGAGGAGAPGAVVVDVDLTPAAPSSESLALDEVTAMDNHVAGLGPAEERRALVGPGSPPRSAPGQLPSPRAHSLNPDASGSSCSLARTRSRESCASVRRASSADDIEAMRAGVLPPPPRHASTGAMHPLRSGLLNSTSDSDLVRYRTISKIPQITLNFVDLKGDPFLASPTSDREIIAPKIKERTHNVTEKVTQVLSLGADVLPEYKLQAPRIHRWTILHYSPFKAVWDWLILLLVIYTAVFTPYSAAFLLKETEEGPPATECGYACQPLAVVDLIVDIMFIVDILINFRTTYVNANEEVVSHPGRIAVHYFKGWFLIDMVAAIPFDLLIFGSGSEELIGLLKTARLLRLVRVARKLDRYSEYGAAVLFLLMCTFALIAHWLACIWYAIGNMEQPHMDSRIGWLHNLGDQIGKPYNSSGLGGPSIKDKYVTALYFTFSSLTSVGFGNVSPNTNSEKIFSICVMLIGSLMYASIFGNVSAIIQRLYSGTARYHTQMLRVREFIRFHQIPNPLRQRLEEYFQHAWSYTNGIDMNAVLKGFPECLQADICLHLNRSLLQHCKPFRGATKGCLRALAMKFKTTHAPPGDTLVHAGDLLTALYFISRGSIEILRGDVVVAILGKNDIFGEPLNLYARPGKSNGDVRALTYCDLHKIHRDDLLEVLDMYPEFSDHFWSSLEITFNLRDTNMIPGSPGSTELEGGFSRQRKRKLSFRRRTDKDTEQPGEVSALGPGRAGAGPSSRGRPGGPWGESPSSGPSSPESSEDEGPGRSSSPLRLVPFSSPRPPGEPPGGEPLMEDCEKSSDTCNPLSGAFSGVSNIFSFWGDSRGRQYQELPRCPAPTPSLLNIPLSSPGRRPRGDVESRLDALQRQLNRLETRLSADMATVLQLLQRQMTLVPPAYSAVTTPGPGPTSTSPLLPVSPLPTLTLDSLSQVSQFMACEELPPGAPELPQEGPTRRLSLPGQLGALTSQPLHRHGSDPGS
structure (smiles),measurement,setting,value
CC(=O)c1ccc(S(=O)(=O)N2CCN(C(=O)/C=C/c3ccc4ccccc4n3)CC2)cc1,AC50,[1],12 µM (active)
same,AC50,[2],> 35 µM (active)
same,EC50,[3],11.8 µM (active)
same,EC50,[4],13.4 µM (active)
same,EC50,[5],10.3 µM (active)
same,AC50,[6],> 35 µM (active)
CN(C)CCCN(C(=O)c1ccc(S(=O)(=O)N(C)C2CCCCC2)cc1)c1nc2ccc(F)cc2s1.Cl,EC50,[7],> 92.5 µM (inactive)
same,EC50,[8],1.88 µM (active)
same,EC50,[9],4.85 µM (active)
same,EC50,[10],69.2 µM (inactive)
same,EC50,[11],> 0.3805 µM
Clc1ccc(CNc2nccc(-c3ccc4c(c3)OCCO4)n2)cc1Cl,AC50,[12],0.0206 µM (active)
Cc1ccc(S(=O)(=O)Nc2cc(SCCC(=O)O)c(O)c3ccccc23)cc1,IC50,[13],> 80 µM (inactive)
same,IC50,[14],10 µM (active)
CN(C)c1cc(N/N=C/c2ccc(Cl)cc2)nc(N(C)C)n1,IC50,[15],> 50 µM (not active)
same,EC50,[16],> 160 µM (inactive)
same,EC50,[17],> 160 µM (inactive)
same,IC50,[18],1 µM (active)
same,AC50,[19],6.18 µM (active)
same,CC50,[20],> 40 µM (active)
same,EC50,[21],0.401 µM (active)
same,IC50,[22],14.2 µM (active)
same,EC50,[23],> 180 µM (inactive)
CC1Oc2ccccc2C=C1/C=N/NC(=O)[C@@H](C)NC(=O)OC(C)(C)C (stereo partly specified),AC50,[24],57 µM (active)
same,AC50,[25],23.1 µM (active)
COC(=O)c1c(-c2cc(OC)c(OC)c(OC)c2)c2ccc(OCc3ccccn3)cc2c(=O)n1-c1ccc(N)cc1,AC50,[26],5.62 µM (inconclusive)
